Experiments:
[1] = Isothermal titration calorimetry (ITC) of CTR-RELN with heparin; assay type: binding; settings: titrated with 5 μM heparin, vs WT
[2] = target: T1, NRP1 (Homo sapiens, UniProt O14786); experiment: Bio-layer interferometry (BLI) of CTR-RELN-NRP-1 interactions; assay type: binding; settings: Fc-fusion peptides
T1 construct: purchased R&D 3870-N1-025
T1 sequence (O14786 22-644 isoform O14786-2 limits assumed): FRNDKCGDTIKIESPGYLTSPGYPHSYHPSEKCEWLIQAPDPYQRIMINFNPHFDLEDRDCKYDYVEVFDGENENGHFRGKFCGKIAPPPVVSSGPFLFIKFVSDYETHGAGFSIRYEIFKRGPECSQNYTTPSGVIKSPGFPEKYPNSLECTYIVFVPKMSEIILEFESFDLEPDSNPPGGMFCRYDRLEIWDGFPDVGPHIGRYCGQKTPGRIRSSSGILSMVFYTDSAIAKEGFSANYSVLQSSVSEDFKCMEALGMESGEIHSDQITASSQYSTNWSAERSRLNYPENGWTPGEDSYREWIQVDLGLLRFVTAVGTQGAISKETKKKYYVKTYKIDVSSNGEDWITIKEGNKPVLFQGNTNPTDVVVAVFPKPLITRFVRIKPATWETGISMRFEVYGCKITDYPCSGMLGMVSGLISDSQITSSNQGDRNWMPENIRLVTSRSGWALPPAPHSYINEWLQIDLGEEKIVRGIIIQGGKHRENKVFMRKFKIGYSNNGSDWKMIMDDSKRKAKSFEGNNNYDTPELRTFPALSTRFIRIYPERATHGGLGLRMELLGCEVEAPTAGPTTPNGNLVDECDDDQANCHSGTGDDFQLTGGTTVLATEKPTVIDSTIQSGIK
Protocol: (§1) Bio-layer interferometry (BLI) was additionally used to assess NRP1-protein kinetics at 30° C. and 1000 rpm agitation. 1 mg/mL NRP1 (R&D 3870-N1-025) was biotinylated at a 1:2 molar ratio, desalted, and immobilized on the SA biosensor tip (Pall ForteBio) surface. This was followed by 1) 180 seconds baseline buffer diluent, 2) loading of the ligand (NRP1), 3) 180 seconds baseline buffer diluent, 4) 240 seconds association (analyte), and 5) 300 seconds disassociation in assay buffer. Assay buffer: SD Buffer (pH7.4 PBS, 0.05% tween20, 0.01% BSA).
The experimental data were fit with the 1:1 binding model and analyzed with global fitting using Octet Data Analysis software to calculate KD.
as §1, with “was” for “was additionally”, “agitation using previously published methods.” for “agitation.”

[3] = target: T2, APOER2 (Homo sapiens, UniProt Q14114); experiment: ELISA cell-free binding of RELN variants to ApoEr2
T2 construct: purchased OnGene (so in the source)
T2 sequence (Q14114 33-963): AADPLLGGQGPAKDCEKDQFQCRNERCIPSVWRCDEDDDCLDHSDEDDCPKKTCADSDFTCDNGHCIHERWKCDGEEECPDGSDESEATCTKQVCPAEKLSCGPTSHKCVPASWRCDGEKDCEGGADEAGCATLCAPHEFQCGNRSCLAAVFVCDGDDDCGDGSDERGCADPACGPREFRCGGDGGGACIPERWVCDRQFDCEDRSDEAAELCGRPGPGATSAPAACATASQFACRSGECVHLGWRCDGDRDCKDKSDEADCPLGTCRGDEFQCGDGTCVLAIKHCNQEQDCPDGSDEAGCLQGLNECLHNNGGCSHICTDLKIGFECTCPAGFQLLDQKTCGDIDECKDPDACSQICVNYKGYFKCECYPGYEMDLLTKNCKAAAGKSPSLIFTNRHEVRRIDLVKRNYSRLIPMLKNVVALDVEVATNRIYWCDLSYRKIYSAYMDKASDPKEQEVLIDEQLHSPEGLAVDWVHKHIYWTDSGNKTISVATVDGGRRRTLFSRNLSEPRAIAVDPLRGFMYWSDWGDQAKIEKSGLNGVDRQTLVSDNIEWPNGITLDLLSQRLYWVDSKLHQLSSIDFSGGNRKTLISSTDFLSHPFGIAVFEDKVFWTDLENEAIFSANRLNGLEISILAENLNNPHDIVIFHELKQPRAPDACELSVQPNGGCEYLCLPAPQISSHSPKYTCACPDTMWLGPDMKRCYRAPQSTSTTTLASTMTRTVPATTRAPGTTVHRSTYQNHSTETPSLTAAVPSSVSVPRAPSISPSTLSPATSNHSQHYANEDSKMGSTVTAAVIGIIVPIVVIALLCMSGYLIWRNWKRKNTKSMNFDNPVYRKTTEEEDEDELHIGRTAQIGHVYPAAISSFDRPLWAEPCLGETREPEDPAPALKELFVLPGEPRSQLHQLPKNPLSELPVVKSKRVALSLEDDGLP
Protocol: Enzyme-linked immunosorbent assay (ELISA) was used to quantify changes in binding of RELN variants (media-derived full-length or CTR-RELN) to either VLDLr or ApoEr2 following an optimized version of a previously published protocol (6). Briefly, ELISA strips (DY008, R&D Systems) were coated with one ng/μL (100 μL/well) of VLDLr (8444-VL, R&D) or ApoEr2 (TP320903, OnGene) receptors diluted in 25 mM Tris HCl, 140 mM NaCl, […], two mM CaCl2), pH 7.4 (TBS-C buffer). After 18 h at four ° C. incubation, plates were blocked one h with three % BSA (22070008-6, Bioworld), 0.05% Tween-20 (Sigma Aldrich) TBS-C buffer. We assessed binding via incubation with 100 μL/well of serial dilutions of recombinant RELN protein (Ser1221-Gln2666, 8546-MR-050, R&D) or RELN variants in TBS-C buffer for one hour at room temperature. For detection, we used goat anti-mouse RELN primary antibody (LS-C793521-100, LS-Bio, 1:2,000, 100 μL/well) as primary antibody for one h at R.T. and (1:10,000; 100 μL/well, donkey anti-goat IgG H&L, HRP, ab6885, Abcam) as secondary antibody for 30 min. at R.T. Between each of the previous steps, plates were washed four times with TBS-C buffer (200 μL/well). Plates were washed three times prior to initiating the colorimetric reaction (DY008, R&D Systems). Stop solution (50 μL/well, DY008, R&D Systems) was added upon five min. incubation and the absorbance of the samples was measured at 450 nm using the Synergy 2 microplate reader (BioTek Instruments). Processing and analysis of the data was done using Gen5 1.11 software and GraphPad Prism, respectively.

Sequence: RKQNYMMNFSRQHGLRRFYNRRRRSLRRYP [CTR-RELN H3447R]
- thermodynamics of heparin interaction [1]: enhanced interactions
- affinity for NRP1 relative to WT [2]: 10 fold
- binding to APOER2 [3]: unable to bind directly

Source: US20260139017A1, “COMPOSITIONS AND METHODS USING REELIN IN ALZHEIMER'S DISEASE” (The General Hospital Corporation, priority 2022, published 2026)
